For five molecules, ED50 results are on record in patent US4311702A, “Imidazo[1,2-a]pyridines having anti-ulcer activity” (Poli Industria Chimica S.p.A., priority 1979, dated 1982).

The term ED50 denotes the dose at which the effect has come halfway, by size or by number of responders.

Assay [1] concerns indomethacin gastric ulcers. Description: Indomethacin gastric ulcers in the rat. The note with it: po, read-out: Indomethacin gastric ulcers ED50. Type of assay: in vivo, rat (Wistar male). The protocol:
indomethacin gastric ulcers, induced in the rat following the under mentioned method originally described by Y. H. Lee, K. W. Mollison, W. C. Cheng in Arch. Int. Pharmacodyn.
Wistar male rats, weighing 160-200 g, starved for 24 hours, are administered endoperitoneally with 30 mg/kg of indomethacin in 0.6% aqueous suspension of 1% gum arabic solution and immediately after they are treated orally with the compound under study. 5 hours later animals are sacrificed under ethereal anesthesia, the stomachs are removed, open along the great curvature and examined for the presence of ulcers. The ulcer index is expressed in terms of square root of the number of gastric ulcers.

Assay [2] concerns acetylsalicylic acid and pylorus ligation gastric ulcers. Description: Acetylsalicylic acid and pylorus ligation gastric ulcers in the rat. It is filed as in vivo, rat (Wistar male). The note with it: read-out: Acetylsalicylic acid and pylorus ligation gastric ulcers ED50. As for the experimental part: Wistar male rats, weighing 160-200 g, fasting from the previous evening are administered intraduodenum with the compound under study immediately after pylorus ligation under light ethereal anesthesia. Two hours after treatment rats receive orally 50 mg/kg of acetylsalicylic acid, dissolved in 5% gum arabic solution. An hour later rats are sacrificed under ether anesthesia and stomachs examined for presence of ulcers.

Assay [3] concerns gastric secretion (hydrochloric acid). Description: Activity on gastric secretion in Shay rats (total acidity). It is filed as in vivo, rat (Wistar male). The note with it: Rattus norvegicus, read-out: Shay rats total acidity ED50. The protocol:
Wistar male rats, weighing 160-200 g, starved for 24 hours are treated orally with the compound under study after pylorus ligation under light ethereal anesthesia. 4 hours later rats are anesthetized with ether and after oesophagus ligation, the stomachs are removed and the contents collected. After centrifugation of the gastric juice, the quantity of hydrochloric acid is determined by titration with 0.01 N Sodium hydroxide, using phenolphthalein as indicator.

The subject of assay [4] is cold and restraint gastric ulcers. In words: Cold and restraint gastric ulcers in the rat. It is filed as in vivo, rat (Wistar female). As to conditions: po, read-out: Cold and restraint gastric ulcers ED50. The protocol:
cold and restraint gastric ulcers induced in the rat following the under mentioned method originally described by E. C. Senay and R. J. Levine in Proc. Soc.
Wistar female rats fasting from the previous evening are introduced in plastic tubes having such a diameter to exert a light constriction and immediately after they are put in a thermoregulated ambient at about 4° C. Two hours later the rats are sacrificed under ethereal anesthesia and their stomachs are examined to ascertain the presence of ulcers.
The ulcer index of each stomach is determined, multiplying the number of gastric lesions of any kind by a corresponding arbitrary value (petechiae=0.5; punctiform ulcer=1; linear ulcer<2 mm=2; linear ulcer>2 mm=3) and adding the partial scores. Rats are treated with the compound under study half an hour before cold exposure.

Where [5] appears, read: os, 30 mg/kg indomethacin endoperitoneally, dose reducing the ulcer index by 50% compared with controls.
[6] abbreviates: intraduodenum immediately after pylorus ligation, dose reducing the number of ulcers by 50% compared with controls.
Where [7] appears, read: i.d. (Table 2 head), 4 hours after pylorus ligation, dose reducing secretion of hydrochloric acid by 50% compared with controls.
[8] abbreviates: os, half an hour before cold exposure, dose reducing the ulcer index by 50% compared with controls.

Each structure is given as a SMILES string. Like-named read-outs stand apart in the source and are kept apart here.

As to `CNC(=NC#N)NCCSCc1c(C)nc2ccccn12` [Ib], the ED50 came out at 0.7 mg/kg in assay [1] (setting [5]), 2.1 mg/kg in assay [2] (setting [6]), 1.1 mg/kg in assay [3] (setting [7]) and 1.5 mg/kg in assay [4] (setting [8]).
Taken in the same sequence, the figures for `CNC(=NC#N)NCCSCc1cnc2ccccn12` [Ia] were 3.4 mg/kg, 7.3 mg/kg, 1.8 mg/kg and 2.8 mg/kg.
Taken in the same sequence, the figures for `CNC(=NC#N)NCCSC(C)c1c(C)nc2ccccn12` (centres unmarked) [Id] were 0.9 mg/kg, 0.9 mg/kg, 0.6 mg/kg and 0.7 mg/kg.
As to `CN/C(=N/CCSCc1nc[nH]c1C)NC#N` [[…], Cimetidine, reference compound], the ED50 in assay [1] is 2.4 mg/kg; in assay [2] it was 3.8 mg/kg; in assay [3] (4 h) it was 0.6 mg/kg; in assay [4], 6.3 mg/kg.
On to `CNC(=NC#N)NCCSC(C)c1cnc2ccccn12` (centres unmarked) [Ic], for which the ED50 in assay [1] (setting [5]) worked out at 3.3 mg/kg; in assay [2] (setting [6]), 5.7 mg/kg; in assay [3] (setting [7]), 2.8 mg/kg; in assay [4] (setting [8]) it was 1.9 mg/kg.
